This is an account of results in patent publication EP2955191A1, “Compound, composition and method for treating and/or ameoliorating kidney disease” (Trineo Biotechnology Co. Ltd, priority 2014, dated 2015).

Structures are written as SMILES.

One test relates to Blb/c mice. In words: Lipopolysaccharide (LPS) induced in vivo kidney inflammation (urine protein). Conditions: oral 100 mg/Kg; LPS 2.5 mg/Kg/day i.p. for 5 days; urine on fifth and tenth day; FIG 3. As to the method:
Blb/c mice were kept in pathogen-free environment under 12:12 light-dark cycle with food (laboratory rodent diet 5001 purchased from PMI Nutrition International Inc. MO, USA) and water (i.e., distilled water) provided ad libitum, ambient temperature and relative humidity were respectively set at 22±3 °C and 50±20%. All procedures involving animal studies of the present disclosure comply with the "Guideline for the Care and Use of Laboratory Animals" issued by The Chinese-Taipei Society of Laboratory Animal Sciences.
In this example, to evaluate the therapeutic or prophylactic function of the compositon of example 1.2, animals were first injected intraperitoneally with lipopolysaccharide (LPS) to induce in vivo kidney inflammation before being subect to the treatment of the compositon of example 1.2.
Blb/c mice (6 weeks old) were randomly assigned to two groups, and injected intraperitoneally with lipopolysaccharide (LPS, 2.5 mg/Kg/day) for 5 consecutive days so as to induce kidney inflammation. […] Unine sampls were respectively collected on the fifth and the tenth day after the experiment started, and analyzed for the level of urine protein therein. […]

Another test has as its system MDCK cells. As to the kind of experiment: Cisplatin induced in vitro kidney cell apoptosis (mitochondria membrane potential, DiOC6 staining). The conditions noted are these: given after 50 µM cisplatin for 4 hrs, FIG 1A. It counts as cell-based, canine. The method, then:
Madin-Darby canine kidney (MDCK) cells (1.5 x 10^5 cells/mL) were cultured and maintained in Dulbecco's modified Eagle medium (DMEM) supplemented with 10% fetal bovine serum (FBS), 100 units/mL penicillin, […] streptomycin, 2mM L-glutamine, non-essential amino acids and sodium pyruvate, and maintained in 5% CO2 at 37 °C until reached 80% confluence, then were subject to cell passages.
MDCK cells were cultured in according to procedures described in the "Materials and Methods" section. To start the experiment, MDCK cells were first incubated with 50 µM cisplatin for 4 hrs, then various concentrations of the compound of formula (I) (50µg/mL or 100 µg/mL) or the YKII-10 composition of example 1.2 (25 to 100 µg/mL) were given to cisplatin-treated cells and further incubated for another 24 hrs. Mitochondria membrane potentials were then measured by staining the live cells with fluorescent dyes (e.g., 50 nM DiOC6), in which 50 nM DiOC6 were added to cells and incubated at 37 °C for 30 min. The cells were then washed twice with phosphate buffer solution before subjecting to microscopy analysis using the inverted fluorescent microscope. […] Results are illustrated in FIGs 1A and 1B.

For `C[C@H](CCC(=O)O)[C@H]1C[C@H](O)[C@@]2(C)C3=C(C(=O)C[C@]12C)[C@@]1(C)CCC(=O)C(C)(C)[C@@H]1C[C@@H]3O` [compound of formula (I)], the urine protein level result with Blb/c mice is “effective in reducing”. Also, the “reversing cisplatin-induced apoptosis of MDCK cell” value in the test with MDCK cells (50µg/mL or 100 µg/mL for 24 hrs) is recorded as “capable of reversing”. Moreover, the “recovery on the membrane potential” value with MDCK cells (100 µg/mL for 24 hrs, MDCK cells) is on record as “about 80%”.
